Paper PMC6199309, “A therapeutic approach to pantothenate kinase associated neurodegeneration” (Nature Communications, 2018)

Legend:
YSK1 = molecular target: T1, YSK1 (Homo sapiens, UniProt O00506); experiment: KINOMEscan; format: binding; conditions: read-out: %Ctrl @ 10000nM
T1 construct: purchased DiscoverX scanMAX; host or cells: E. coli BL21-derived host (T7 phage) or HEK-293

ANKK1 = molecular target: T2, ANKK1 (Homo sapiens, UniProt Q8NFD2); experiment: KINOMEscan; format: binding; conditions: read-out: %Ctrl @ 10000nM
T2 construct: purchased DiscoverX KINOMEscan

FGFR3(G697C) = molecular target: T3, FGFR3(G697C) (Homo sapiens, UniProt P22607, G697C); experiment: KINOMEscan; format: binding; conditions: read-out: %Ctrl @ 10000nM
T3 construct: purchased DiscoverX KINOMEscan

PIP5K1A = molecular target: T4, PIP5K1A (Homo sapiens, UniProt Q99755); experiment: KINOMEscan; format: binding; conditions: read-out: %Ctrl @ 10000nM
T4 construct: purchased DiscoverX KINOMEscan

FGFR1 = molecular target: T5, FGFR1 (Homo sapiens, UniProt P11362); experiment: KINOMEscan; format: binding; conditions: read-out: %Ctrl @ 10000nM
T5 construct: purchased DiscoverX KINOMEscan

MAP3K1 = molecular target: T6, MAP3K1 (Homo sapiens, UniProt Q13233); experiment: KINOMEscan; format: binding; conditions: read-out: %Ctrl @ 10000nM
T6 construct: purchased DiscoverX KINOMEscan
T6 sequence (Q13233 whole entry): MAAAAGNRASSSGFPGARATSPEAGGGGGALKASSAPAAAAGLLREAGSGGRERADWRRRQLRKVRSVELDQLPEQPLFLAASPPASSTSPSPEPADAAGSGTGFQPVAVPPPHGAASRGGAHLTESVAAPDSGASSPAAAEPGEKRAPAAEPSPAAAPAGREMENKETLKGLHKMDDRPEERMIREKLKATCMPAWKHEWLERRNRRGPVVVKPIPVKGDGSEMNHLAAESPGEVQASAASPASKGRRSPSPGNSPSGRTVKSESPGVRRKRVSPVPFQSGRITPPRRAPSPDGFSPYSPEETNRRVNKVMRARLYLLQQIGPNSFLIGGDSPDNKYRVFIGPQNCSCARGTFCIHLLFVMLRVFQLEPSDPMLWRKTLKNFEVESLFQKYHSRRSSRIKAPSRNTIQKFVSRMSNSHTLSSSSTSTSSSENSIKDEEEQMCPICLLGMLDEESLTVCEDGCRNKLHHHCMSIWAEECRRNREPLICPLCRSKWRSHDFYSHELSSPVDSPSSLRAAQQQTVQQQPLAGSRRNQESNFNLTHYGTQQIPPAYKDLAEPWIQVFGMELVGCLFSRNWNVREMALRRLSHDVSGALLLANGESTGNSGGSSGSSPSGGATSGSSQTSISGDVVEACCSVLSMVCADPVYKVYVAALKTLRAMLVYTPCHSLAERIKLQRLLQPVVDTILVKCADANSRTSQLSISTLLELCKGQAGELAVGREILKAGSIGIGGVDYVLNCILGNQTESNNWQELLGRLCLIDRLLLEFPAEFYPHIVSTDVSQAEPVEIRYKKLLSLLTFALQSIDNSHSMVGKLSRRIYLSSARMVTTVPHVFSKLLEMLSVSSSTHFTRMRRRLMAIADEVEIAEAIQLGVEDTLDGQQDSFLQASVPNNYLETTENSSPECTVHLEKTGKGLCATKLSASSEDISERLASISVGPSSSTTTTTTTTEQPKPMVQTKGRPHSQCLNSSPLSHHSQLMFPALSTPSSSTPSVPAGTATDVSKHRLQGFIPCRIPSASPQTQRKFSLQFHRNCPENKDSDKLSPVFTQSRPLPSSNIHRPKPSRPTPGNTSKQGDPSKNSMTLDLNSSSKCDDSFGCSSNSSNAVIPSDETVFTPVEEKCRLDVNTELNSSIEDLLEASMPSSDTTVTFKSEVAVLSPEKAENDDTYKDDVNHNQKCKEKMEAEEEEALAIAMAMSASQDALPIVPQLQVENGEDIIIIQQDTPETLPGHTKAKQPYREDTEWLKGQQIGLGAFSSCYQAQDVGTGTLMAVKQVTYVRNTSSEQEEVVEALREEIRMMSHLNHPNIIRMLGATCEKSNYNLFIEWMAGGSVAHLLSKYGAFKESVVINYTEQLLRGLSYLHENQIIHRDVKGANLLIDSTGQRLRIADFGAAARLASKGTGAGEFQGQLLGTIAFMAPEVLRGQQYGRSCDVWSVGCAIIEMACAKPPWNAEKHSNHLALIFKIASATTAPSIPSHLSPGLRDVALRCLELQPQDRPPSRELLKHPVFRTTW

CAMK1B = molecular target: T7, CAMK1B (Homo sapiens, UniProt Q6P2M8); experiment: KINOMEscan; format: binding; conditions: read-out: %Ctrl @ 10000nM
T7 construct: purchased DiscoverX KINOMEscan

MYLK4 = molecular target: T8, MYLK4 (Homo sapiens, UniProt Q86YV6); experiment: KINOMEscan; format: binding; conditions: read-out: %Ctrl @ 10000nM
T8 construct: purchased DiscoverX KINOMEscan

Protein binding = conditions: human
CSNK1G2 = molecular target: T9, CSNK1G2 (Homo sapiens, UniProt P78368); experiment: KINOMEscan; format: binding; conditions: read-out: %Ctrl @ 10000nM
T9 construct: purchased DiscoverX KINOMEscan

RET(M918T) = molecular target: T10, RET(M918T) (Homo sapiens, UniProt P07949, M918T); experiment: KINOMEscan; format: binding; conditions: read-out: %Ctrl @ 10000nM
T10 construct: purchased DiscoverX KINOMEscan

STK33 = molecular target: T11, STK33 (Homo sapiens, UniProt Q9BYT3); experiment: KINOMEscan; format: binding; conditions: read-out: %Ctrl @ 10000nM
T11 construct: purchased DiscoverX KINOMEscan

FGFR2 = molecular target: T12, FGFR2 (Homo sapiens, UniProt P21802); experiment: KINOMEscan; format: binding; conditions: read-out: %Ctrl @ 10000nM
T12 construct: purchased DiscoverX KINOMEscan

FRK = molecular target: T13, FRK (Homo sapiens, UniProt P42685); experiment: KINOMEscan; format: binding; conditions: read-out: %Ctrl @ 10000nM
T13 construct: purchased DiscoverX KINOMEscan

DYRK1B = molecular target: T14, DYRK1B (Homo sapiens, UniProt Q9Y463); experiment: KINOMEscan; format: binding; conditions: read-out: %Ctrl @ 10000nM
T14 construct: purchased DiscoverX KINOMEscan
T14 sequence (Q9Y463 whole entry): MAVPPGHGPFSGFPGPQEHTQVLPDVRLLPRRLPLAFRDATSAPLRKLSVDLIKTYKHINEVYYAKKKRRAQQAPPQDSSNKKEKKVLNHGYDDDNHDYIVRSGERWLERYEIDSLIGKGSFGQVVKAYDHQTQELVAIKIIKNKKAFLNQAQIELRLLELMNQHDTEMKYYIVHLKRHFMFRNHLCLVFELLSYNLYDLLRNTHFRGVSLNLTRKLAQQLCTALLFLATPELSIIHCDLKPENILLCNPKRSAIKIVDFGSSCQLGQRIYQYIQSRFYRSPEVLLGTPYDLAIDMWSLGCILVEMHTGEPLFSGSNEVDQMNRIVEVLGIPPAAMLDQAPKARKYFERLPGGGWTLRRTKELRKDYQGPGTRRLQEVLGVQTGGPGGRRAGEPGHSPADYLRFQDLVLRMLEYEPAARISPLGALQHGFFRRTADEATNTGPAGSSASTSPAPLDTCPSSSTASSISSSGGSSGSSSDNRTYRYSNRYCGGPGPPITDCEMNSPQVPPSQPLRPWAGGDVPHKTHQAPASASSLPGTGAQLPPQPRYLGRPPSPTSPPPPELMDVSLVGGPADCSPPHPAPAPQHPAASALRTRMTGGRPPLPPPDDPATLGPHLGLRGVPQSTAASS

[1] = PZ-2891 levels in plasma, liver and brain tissue; format: in vivo, mouse; conditions: 225 ppm PZ-2891 in diet, 4 weeks
Protocol: Plasma (20 μl) was added to 100 μl acetonitrile containing 0.6 μM warfarin to a final concentration of 0.5 μM. The samples were incubated on ice for 30 min. Samples were spun at 3500×g for 10 min to pellet debris, and the supernatant was transferred to a glass vial. […] Tissue was homogenized in 2 ml of 80% methanol containing 0.1 μM warfarin, and incubated at −80 °C for 4 h. Samples were spun at 3500×g for 10 min to pellet debris, supernatant was transferred to a glass tube and dried down using a Savant SPD1010 Speed-Vac (Thermo Scientific) overnight. Samples were resuspended in 400 μl of 80% acetonitrile to a final concentration of 0.5 μM and transferred to a glass vial.
Samples (5 μl) were injected onto an XSelect® HSS C18, 2.5 μm, 3.0 × 150 mm column (Waters) using a flow rate of 0.25 ml/min. Solvent A was 0.1% formic acid in water, and Solvent B was acetonitrile + 0.1% formic acid. The HPLC program was the following: starting solvent mixture of 50% B, 0–0.5 min isocratic with 50% B; 0.5–1.5 min linear gradient to 95% B; 1.5–20 min isocratic with 95% B; 20–21 min linear gradient to 50% B; 21–25 min isocratic with 50% B. The QTrap 4500 was operated in the positive mode, and the ion source parameters were: ion spray voltage, 5500 V; curtain gas, 30 psi; temperature, 450 °C; collision gas, medium; ion source gas 1, 30 psi; and ion source gas 2, 40 psi. […]
Supplementary Fig. 11. […]. […]

SIK2 = molecular target: T15, SIK2 (Homo sapiens, UniProt Q9H0K1); experiment: KINOMEscan; format: binding; conditions: read-out: %Ctrl @ 10000nM
T15 construct: DNA tag for qPCR (T7 phage fusion or DNA label); purchased DiscoverX KdELECT; host or cells: E. coli BL21-derived (T7 phage) or HEK-293
T15 sequence (Q9H0K1 whole entry, the tested form may be a part): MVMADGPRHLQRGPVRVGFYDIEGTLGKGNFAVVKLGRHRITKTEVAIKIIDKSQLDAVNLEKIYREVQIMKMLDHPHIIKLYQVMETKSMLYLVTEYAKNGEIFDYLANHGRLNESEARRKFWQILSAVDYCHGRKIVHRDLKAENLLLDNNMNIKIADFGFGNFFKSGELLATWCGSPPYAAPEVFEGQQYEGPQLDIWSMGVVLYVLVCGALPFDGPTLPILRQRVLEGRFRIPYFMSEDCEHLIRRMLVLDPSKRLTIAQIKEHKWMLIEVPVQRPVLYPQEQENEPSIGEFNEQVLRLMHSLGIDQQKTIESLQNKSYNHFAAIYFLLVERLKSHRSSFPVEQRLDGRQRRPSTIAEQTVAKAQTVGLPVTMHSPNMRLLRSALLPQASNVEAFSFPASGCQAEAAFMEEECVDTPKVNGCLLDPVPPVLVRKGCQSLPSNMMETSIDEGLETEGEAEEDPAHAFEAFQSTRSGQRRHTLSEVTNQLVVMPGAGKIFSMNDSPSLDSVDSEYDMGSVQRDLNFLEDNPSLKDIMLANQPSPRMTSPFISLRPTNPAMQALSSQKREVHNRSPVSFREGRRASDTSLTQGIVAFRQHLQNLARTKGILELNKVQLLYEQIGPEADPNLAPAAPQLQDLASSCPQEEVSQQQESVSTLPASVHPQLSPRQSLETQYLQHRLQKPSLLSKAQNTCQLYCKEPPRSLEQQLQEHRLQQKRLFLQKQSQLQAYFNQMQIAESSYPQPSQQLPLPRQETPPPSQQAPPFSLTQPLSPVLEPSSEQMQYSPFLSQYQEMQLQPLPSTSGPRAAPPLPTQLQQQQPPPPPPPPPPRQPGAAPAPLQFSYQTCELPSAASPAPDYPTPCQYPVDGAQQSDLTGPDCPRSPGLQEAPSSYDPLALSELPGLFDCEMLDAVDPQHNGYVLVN

BLK = molecular target: T16, BLK (Homo sapiens, UniProt P51451); experiment: KINOMEscan; format: binding; conditions: read-out: %Ctrl @ 10000nM
T16 construct: purchased DiscoverX KINOMEscan

DMPK2 = molecular target: T17, DMPK2 (Homo sapiens, UniProt Q6DT37); experiment: KINOMEscan; format: binding; conditions: read-out: %Ctrl @ 10000nM
T17 construct: purchased DiscoverX KINOMEscan

SRC = molecular target: T18, SRC (Homo sapiens, UniProt P12931); experiment: KINOMEscan; format: binding; conditions: read-out: %Ctrl @ 10000nM
T18 construct: purchased DiscoverX KINOMEscan
T18 sequence (P12931 whole entry): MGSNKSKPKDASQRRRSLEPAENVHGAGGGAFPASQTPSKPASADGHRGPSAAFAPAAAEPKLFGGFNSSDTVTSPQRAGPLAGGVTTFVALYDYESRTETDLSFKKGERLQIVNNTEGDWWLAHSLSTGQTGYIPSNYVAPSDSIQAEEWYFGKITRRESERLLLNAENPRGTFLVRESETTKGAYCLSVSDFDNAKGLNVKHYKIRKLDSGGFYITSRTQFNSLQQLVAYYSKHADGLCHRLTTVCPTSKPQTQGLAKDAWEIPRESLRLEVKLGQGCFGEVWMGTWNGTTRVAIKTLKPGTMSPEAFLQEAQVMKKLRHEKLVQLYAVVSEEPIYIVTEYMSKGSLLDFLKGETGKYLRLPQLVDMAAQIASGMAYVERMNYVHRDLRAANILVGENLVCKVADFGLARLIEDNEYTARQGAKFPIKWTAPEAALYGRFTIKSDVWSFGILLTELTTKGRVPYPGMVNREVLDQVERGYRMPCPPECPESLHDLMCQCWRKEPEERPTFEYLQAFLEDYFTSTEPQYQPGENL

MAP4K5 = molecular target: T19, MAP4K5 (Homo sapiens, UniProt Q9Y4K4); experiment: KINOMEscan; format: binding; conditions: read-out: %Ctrl @ 10000nM
T19 construct: purchased DiscoverX KINOMEscan

AKT1 = molecular target: T20, AKT1 (Homo sapiens, UniProt P31749); experiment: KINOMEscan; format: binding; conditions: read-out: %Ctrl @ 10000nM
T20 construct: purchased DiscoverX KINOMEscan

CSNK1E = molecular target: T21, CSNK1E (Homo sapiens, UniProt P49674); experiment: KINOMEscan; format: binding; conditions: read-out: %Ctrl @ 10000nM
T21 construct: purchased DiscoverX KINOMEscan
T21 sequence (P49674 whole entry): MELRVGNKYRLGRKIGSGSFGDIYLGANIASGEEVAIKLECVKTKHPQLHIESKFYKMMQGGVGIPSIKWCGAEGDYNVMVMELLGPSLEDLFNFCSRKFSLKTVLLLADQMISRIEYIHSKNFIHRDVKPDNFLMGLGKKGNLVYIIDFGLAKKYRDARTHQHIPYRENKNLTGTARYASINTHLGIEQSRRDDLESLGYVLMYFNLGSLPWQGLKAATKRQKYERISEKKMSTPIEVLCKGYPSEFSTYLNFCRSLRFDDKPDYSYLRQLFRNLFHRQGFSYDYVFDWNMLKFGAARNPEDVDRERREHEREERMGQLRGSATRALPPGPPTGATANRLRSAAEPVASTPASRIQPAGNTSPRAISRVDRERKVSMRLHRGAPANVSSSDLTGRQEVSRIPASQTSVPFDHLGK

[2] = molecular target: T22, RSK4(Kin.Dom.2-C-terminal) (Homo sapiens, UniProt Q9UK32); experiment: KINOMEscan; format: binding; conditions: read-out: %Ctrl @ 10000nM
T22 construct: RSK4(Kin.Dom.2-C-terminal); purchased DiscoverX KINOMEscan

PIK3CA(C420R) = molecular target: T23, PIK3CA(C420R) (Homo sapiens, UniProt P42336, C420R); experiment: KINOMEscan; format: binding; conditions: read-out: %Ctrl @ 10000nM
T23 construct: purchased DiscoverX KINOMEscan
T23 sequence (P42336 whole entry C420R): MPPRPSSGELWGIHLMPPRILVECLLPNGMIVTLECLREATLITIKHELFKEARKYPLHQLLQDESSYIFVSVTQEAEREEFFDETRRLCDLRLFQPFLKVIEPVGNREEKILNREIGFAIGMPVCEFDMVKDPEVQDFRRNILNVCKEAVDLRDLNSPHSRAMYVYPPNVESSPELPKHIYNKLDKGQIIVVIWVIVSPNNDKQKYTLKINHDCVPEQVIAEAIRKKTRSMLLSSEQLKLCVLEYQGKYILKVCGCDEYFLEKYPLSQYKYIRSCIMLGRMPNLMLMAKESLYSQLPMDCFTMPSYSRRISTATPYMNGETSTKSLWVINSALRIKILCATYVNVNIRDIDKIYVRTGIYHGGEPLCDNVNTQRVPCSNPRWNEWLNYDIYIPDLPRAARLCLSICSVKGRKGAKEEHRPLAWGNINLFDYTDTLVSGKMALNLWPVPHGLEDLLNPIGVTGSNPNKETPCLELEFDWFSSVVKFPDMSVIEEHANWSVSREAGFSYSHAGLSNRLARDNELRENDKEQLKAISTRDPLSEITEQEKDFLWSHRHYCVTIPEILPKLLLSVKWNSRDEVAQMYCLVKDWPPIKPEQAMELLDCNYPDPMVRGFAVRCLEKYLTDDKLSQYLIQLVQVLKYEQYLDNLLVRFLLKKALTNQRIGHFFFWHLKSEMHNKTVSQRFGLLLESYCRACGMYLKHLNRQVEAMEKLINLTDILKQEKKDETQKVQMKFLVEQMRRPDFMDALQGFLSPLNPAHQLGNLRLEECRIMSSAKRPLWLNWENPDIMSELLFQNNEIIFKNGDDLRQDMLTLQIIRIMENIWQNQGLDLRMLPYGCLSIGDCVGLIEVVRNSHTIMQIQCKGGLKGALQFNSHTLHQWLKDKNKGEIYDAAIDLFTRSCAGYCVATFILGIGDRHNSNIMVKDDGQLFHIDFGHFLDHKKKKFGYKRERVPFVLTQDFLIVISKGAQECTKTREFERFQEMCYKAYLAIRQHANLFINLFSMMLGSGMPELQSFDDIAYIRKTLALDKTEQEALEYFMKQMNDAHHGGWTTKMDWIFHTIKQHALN

TYRO3 = molecular target: T24, TYRO3 (Homo sapiens, UniProt Q06418); experiment: KINOMEscan; format: binding; conditions: read-out: %Ctrl @ 10000nM
T24 construct: DNA label for qPCR (T7 phage fusion or DNA tag); purchased DiscoverX scanMAX; host or cells: E. coli BL21-derived (T7 phage) or HEK-293

GRK4 = molecular target: T25, GRK4 (Homo sapiens, UniProt P32298); experiment: KINOMEscan; format: binding; conditions: read-out: %Ctrl @ 10000nM
T25 construct: purchased DiscoverX KINOMEscan

EPHA1 = molecular target: T26, EPHA1 (Homo sapiens, UniProt P21709); experiment: KINOMEscan; format: binding; conditions: read-out: %Ctrl @ 10000nM
T26 construct: purchased DiscoverX KINOMEscan

EGFR(E746-A750del) = molecular target: T27, EGFR(E746-A750del) (Homo sapiens, UniProt P00533, DEL746-750); experiment: KINOMEscan; format: binding; conditions: read-out: %Ctrl @ 10000nM
T27 construct: purchased DiscoverX KINOMEscan

EPHA4 = molecular target: T28, EPHA4 (Homo sapiens, UniProt P54764); experiment: KINOMEscan; format: binding; conditions: read-out: %Ctrl @ 10000nM
T28 construct: purchased DiscoverX KINOMEscan

GAK = molecular target: T29, GAK (Homo sapiens, UniProt O14976); experiment: KINOMEscan; format: binding; conditions: read-out: %Ctrl @ 10000nM
T29 construct: purchased DiscoverX KINOMEscan

With `CC(C)c1ccc(CC(=O)N2CCN(c3ccc(C#N)nn3)CC2)cc1` [PZ-2891, 6-(4-(2-(4-isopropylphenyl)acetyl)piperazin-1-yl)pyridazine-3-carbonitrile] the remaining binding at 10 µM (YSK1) was 100%, the remaining binding at 10 µM (ANKK1) was 78% and the remaining binding at 10 µM (FGFR3(G697C)) was 99%. It also gave a remaining binding at 10 µM (PIP5K1A) of 86%, a remaining binding at 10 µM (FGFR1) of 87% and a remaining binding at 10 µM (MAP3K1) of 89%. For the same compound, the remaining binding at 10 µM (CAMK1B) was 100%, the remaining binding at 10 µM (MYLK4) was 92% and the fraction unbound (Protein binding) was 0.07. For the same compound, the remaining binding at 10 µM (CSNK1G2) was 62%, the remaining binding at 10 µM (RET(M918T)) was 95% and the remaining binding at 10 µM (STK33) was 90%. For the same compound, the remaining binding at 10 µM (FGFR2) was 100%, the remaining binding at 10 µM (FRK) was 86% and the remaining binding at 10 µM (DYRK1B) was 66%. The “PZ-2891 levels in tissues” value [1] was “presence of drug in liver and brain”, the remaining binding at 10 µM (SIK2) was 9.5% and the remaining binding at 10 µM (BLK) was 87%. It also gave a remaining binding at 10 µM (DMPK2) of 93%, a remaining binding at 10 µM (SRC) of 97% and a remaining binding at 10 µM (MAP4K5) of 100%. It also gave a remaining binding at 10 µM (AKT1) of 98%, a remaining binding at 10 µM (CSNK1E) of 97% and a remaining binding at 10 µM [2] of 71%. The remaining binding at 10 µM (PIK3CA(C420R)) was 76%, the remaining binding at 10 µM (TYRO3) was 100% and the remaining binding at 10 µM (GRK4) was 52%. It also gave a remaining binding at 10 µM (EPHA1) of 95%, a remaining binding at 10 µM (EGFR(E746-A750del)) of 100% and a remaining binding at 10 µM (EPHA4) of 93%. The remaining binding at 10 µM (GAK) was 93%.
